Assay results published in ChEMBL document CHEMBL3124853, “Synthesis and anti-Candidal activity of N-(4-aryl/cyclohexyl)-2-(pyridine-4-yl carbonyl) hydrazinecarbothioamide” (Bioorg Med Chem Lett, 2014).
≈ marks a conversion by molar mass, not a printed value.

How the values were obtained:
A549 = experiment: Cytotoxicity against human A549 cells after 48 hrs by MTT assay; format: cell-based; conditions: A549, 48 h
[1] = Cytotoxicity against human HT1080 cells after 48 hrs by MTT assay; format: cell-based; conditions: HT-1080, 48 h
HepG2 = experiment: Cytotoxicity against human HepG2 cells after 48 hrs by MTT assay; format: cell-based; conditions: HepG2, 48 h
[2] = Cytotoxicity against human MCF10A cells after 48 hrs by WST1 assay; format: cell-based; conditions: MCF-10A
Candida [3] = experiment: Antifungal activity against Candida sp. clinical isolate 12810 derived from blood by microbroth dilution method; format: functional
Candida [4] = experiment: Antifungal activity against Candida sp. clinical isolate 12485 derived from urine by microbroth dilution method; format: functional; conditions: clinical isolate 12485, Urine
Candida [5] = experiment: Antifungal activity against Candida sp. clinical isolate 12341 derived from urine by microbroth dilution method; format: functional; conditions: clinical isolate 12341, Urine
Candida [6] = experiment: Antifungal activity against Candida sp. clinical isolate 300 derived from urine by microbroth dilution method; format: functional; conditions: clinical isolate 300, Urine
Candida [7] = experiment: Antifungal activity against Candida sp. clinical isolate 178 derived from high vaginal swabs by microbroth dilution method; format: functional
Candida [8] = experiment: Antifungal activity against Candida sp. clinical isolate 11972 derived from high vaginal swabs by microbroth dilution method; format: functional
Candida albicans = experiment: Antifungal activity against Candida albicans ATCC 66027 by microbroth dilution method; format: functional
Candida [9] = experiment: Antifungal activity against Candida sp. clinical isolate 13184 derived from high vaginal swabs by microbroth dilution method; format: functional
Candida parapsilosis = experiment: Antifungal activity against Candida parapsilosis ATCC 22019 by microbroth dilution method; format: functional; conditions: Lodderomyces parapsilosis
Candida tropicalis = experiment: Antifungal activity against Candida tropicalis ATCC 66029 by microbroth dilution method; format: functional

| MIC (Candida [3]) | MIC (Candida [4]) | MIC (Candida [5]) | MIC (Candida [6]) | MIC (Candida [7]) | MIC (Candida [8]) | MIC (Candida albicans) | MIC (Candida [9]) | MIC (Candida parapsilosis) | MIC (Candida tropicalis) | Compound | IC50 (A549) | IC50 [1] | IC50 (HepG2) | IC50 [2] |
| --- | --- | --- | --- | --- | --- | --- | --- | --- | --- | --- | --- | --- | --- | --- |
| 0.78 µg/mL (≈ 2.86 µM) | 1.6 µg/mL (≈ 5.88 µM) | 1.6 µg/mL (≈ 5.88 µM) | 0.19 µg/mL (≈ 0.698 µM) | 6.25 µg/mL (≈ 22.9 µM) | 6.25 µg/mL (≈ 22.9 µM) | 0.19 µg/mL (≈ 0.698 µM) | 12.5 µg/mL (≈ 45.9 µM) | 0.39 µg/mL (≈ 1.43 µM) | 1.6 µg/mL (≈ 5.88 µM) | O=C(NNC(=S)Nc1ccccc1)c1ccncc1 | 2040 µg/mL (≈ 7500 µM) | 684 µg/mL (≈ 2510 µM) | 716 µg/mL (≈ 2630 µM) | > 300 µM |
| 0.09 µg/mL (≈ 0.293 µM) | 0.39 µg/mL (≈ 1.27 µM) | 0.19 µg/mL (≈ 0.619 µM) | 0.39 µg/mL (≈ 1.27 µM) | 0.19 µg/mL (≈ 0.619 µM) | 0.19 µg/mL (≈ 0.619 µM) | 0.09 µg/mL (≈ 0.293 µM) | 0.78 µg/mL (≈ 2.54 µM) | 0.19 µg/mL (≈ 0.619 µM) | 0.19 µg/mL (≈ 0.619 µM) | O=C(NNC(=S)Nc1ccc(Cl)cc1)c1ccncc1 | 410 µg/mL (≈ 1340 µM) | 540 µg/mL (≈ 1760 µM) | 1200 µg/mL (≈ 3910 µM) | > 300 µM |
| 0.39 µg/mL (≈ 0.979 µM) | 0.78 µg/mL (≈ 1.96 µM) | 0.19 µg/mL (≈ 0.477 µM) | 1.6 µg/mL (≈ 4.02 µM) | 0.09 µg/mL (≈ 0.226 µM) | 0.19 µg/mL (≈ 0.477 µM) | 0.39 µg/mL (≈ 0.979 µM) | 1.6 µg/mL (≈ 4.02 µM) | 0.19 µg/mL (≈ 0.477 µM) | 0.19 µg/mL (≈ 0.477 µM) | O=C(NNC(=S)Nc1ccc(I)cc1)c1ccncc1 | – | – | – | > 300 µM |
| > 50 µg/mL | > 50 µg/mL | > 50 µg/mL | > 50 µg/mL | > 50 µg/mL | > 50 µg/mL | > 50 µg/mL | > 50 µg/mL | > 50 µg/mL | > 50 µg/mL | Cc1ccc(NC(=S)NNC(=O)c2ccncc2)cc1 | – | – | – | 229 µM |
| > 50 µg/mL | > 50 µg/mL | > 50 µg/mL | > 50 µg/mL | > 50 µg/mL | > 50 µg/mL | > 50 µg/mL | > 50 µg/mL | > 50 µg/mL | > 50 µg/mL | Cc1cccc(NC(=S)NNC(=O)c2ccncc2)c1 | – | – | – | > 300 µM |
| 1.6 µg/mL (≈ 5.33 µM) | 6.25 µg/mL (≈ 20.8 µM) | 6.25 µg/mL (≈ 20.8 µM) | 0.78 µg/mL (≈ 2.6 µM) | 6.25 µg/mL (≈ 20.8 µM) | 12.5 µg/mL (≈ 41.6 µM) | 0.78 µg/mL (≈ 2.6 µM) | 6.25 µg/mL (≈ 20.8 µM) | 0.78 µg/mL (≈ 2.6 µM) | 0.78 µg/mL (≈ 2.6 µM) | Cc1cccc(C)c1NC(=S)NNC(=O)c1ccncc1 | – | – | – | > 300 µM |
| > 50 µg/mL | > 50 µg/mL | > 50 µg/mL | > 50 µg/mL | > 50 µg/mL | > 50 µg/mL | > 50 µg/mL | > 50 µg/mL | > 50 µg/mL | > 50 µg/mL | O=C(NNC(=S)NC1CCCCC1)c1ccncc1 | – | – | – | > 300 µM |
| 0.09 µg/mL (≈ 0.293 µM) | 6.25 µg/mL (≈ 20.4 µM) | 0.78 µg/mL (≈ 2.54 µM) | 0.78 µg/mL (≈ 2.54 µM) | 6.25 µg/mL (≈ 20.4 µM) | 0.39 µg/mL (≈ 1.27 µM) | 0.19 µg/mL (≈ 0.619 µM) | 6.25 µg/mL (≈ 20.4 µM) | 0.78 µg/mL (≈ 2.54 µM) | 1.6 µg/mL (≈ 5.22 µM) | O=C(NNC(=S)Nc1cccc(Cl)c1)c1ccncc1 | – | – | – | > 300 µM |

The remaining lines, values behind:

| Compound | MIC (Candida [3]) | MIC (Candida [4]) | MIC (Candida [5]) | MIC (Candida [6]) | MIC (Candida [7]) | MIC (Candida [8]) | MIC (Candida albicans) | MIC (Candida [9]) | MIC (Candida parapsilosis) | MIC (Candida tropicalis) | IC50 (A549) | IC50 [1] | IC50 (HepG2) | IC50 [2] |
| --- | --- | --- | --- | --- | --- | --- | --- | --- | --- | --- | --- | --- | --- | --- |
| CCC(C)n1ncn(-c2ccc(N3CCN(c4ccc(OCC5COC(Cn6cncn6)(c6ccc(Cl)cc6Cl)O5)cc4)CC3)cc2)c1=O (configuration not stated) [ITRACONAZOLE] | 0.25 µg/mL (≈ 0.354 µM) | 0.04 µg/mL (≈ 0.0567 µM) | 0.09 µg/mL (≈ 0.128 µM) | 0.09 µg/mL (≈ 0.128 µM) | 0.19 µg/mL (≈ 0.269 µM) | 0.02 µg/mL (≈ 0.0283 µM) | 1.56 µg/mL (≈ 2.21 µM) | 0.39 µg/mL (≈ 0.553 µM) | 0.04 µg/mL (≈ 0.0567 µM) | 0.19 µg/mL (≈ 0.269 µM) | 182 µg/mL (≈ 258 µM) | 202 µg/mL (≈ 286 µM) | 142 µg/mL (≈ 201 µM) | > 300 µM |
| CC(=O)Nc1ccc(NC(=S)NNC(=O)c2ccncc2)cc1 | 1.6 µg/mL (≈ 4.86 µM) | 1.6 µg/mL (≈ 4.86 µM) | 1.6 µg/mL (≈ 4.86 µM) | 1.6 µg/mL (≈ 4.86 µM) | 0.19 µg/mL (≈ 0.577 µM) | 0.78 µg/mL (≈ 2.37 µM) | 0.39 µg/mL (≈ 1.18 µM) | 1.6 µg/mL (≈ 4.86 µM) | 0.19 µg/mL (≈ 0.577 µM) | 0.19 µg/mL (≈ 0.577 µM) | – | – | – | > 300 µM |
| Cc1ccccc1N=C(S)NNC(=O)c1ccncc1 | > 50 µg/mL | > 50 µg/mL | > 50 µg/mL | > 50 µg/mL | > 50 µg/mL | > 50 µg/mL | > 50 µg/mL | > 50 µg/mL | > 50 µg/mL | > 50 µg/mL | – | – | – | > 300 µM |
| O=C(NNC(=S)Nc1ccccc1[N+](=O)[O-])c1ccncc1 | 0.39 µg/mL (≈ 1.23 µM) | 0.39 µg/mL (≈ 1.23 µM) | 6.25 µg/mL (≈ 19.7 µM) | 1.6 µg/mL (≈ 5.04 µM) | 0.39 µg/mL (≈ 1.23 µM) | 6.25 µg/mL (≈ 19.7 µM) | 1.6 µg/mL (≈ 5.04 µM) | 0.78 µg/mL (≈ 2.46 µM) | 6.25 µg/mL (≈ 19.7 µM) | 0.19 µg/mL (≈ 0.599 µM) | 813 µg/mL (≈ 2560 µM) | 833 µg/mL (≈ 2630 µM) | 410 µg/mL (≈ 1290 µM) | > 300 µM |
| COc1ccc(NC(=S)NNC(=O)c2ccncc2)cc1 | > 50 µg/mL | > 50 µg/mL | > 50 µg/mL | > 50 µg/mL | > 50 µg/mL | > 50 µg/mL | > 50 µg/mL | > 50 µg/mL | > 50 µg/mL | > 50 µg/mL | – | – | – | 47.5 µM |
| O=C(NNC(=S)Nc1ccc(S(=O)(=O)Nc2ncccn2)cc1)c1ccncc1 | > 50 µg/mL | > 50 µg/mL | > 50 µg/mL | > 50 µg/mL | > 50 µg/mL | > 50 µg/mL | > 50 µg/mL | > 50 µg/mL | > 50 µg/mL | > 50 µg/mL | – | – | – | > 300 µM |
| O=C(O)c1cn(C2CC2)c2cc(N3CCNCC3)c(F)cc2c1=O [CIPROFLOXACIN] | – | – | – | – | – | – | – | – | – | – | – | – | – | > 300 µM |
| O=C(NNC(=S)Nc1ccc([N+](=O)[O-])cc1)c1ccncc1 | > 50 µg/mL | > 50 µg/mL | > 50 µg/mL | > 50 µg/mL | > 50 µg/mL | > 50 µg/mL | > 50 µg/mL | > 50 µg/mL | > 50 µg/mL | > 50 µg/mL | – | – | – | > 300 µM |
| CCOc1ccc(NC(=S)NNC(=O)c2ccncc2)cc1 | > 50 µg/mL | > 50 µg/mL | > 50 µg/mL | > 50 µg/mL | > 50 µg/mL | > 50 µg/mL | > 50 µg/mL | > 50 µg/mL | > 50 µg/mL | > 50 µg/mL | – | – | – | > 300 µM |
| COc1cccc(NC(=S)NNC(=O)c2ccncc2)c1 | > 50 µg/mL | > 50 µg/mL | > 50 µg/mL | > 50 µg/mL | > 50 µg/mL | > 50 µg/mL | > 50 µg/mL | > 50 µg/mL | > 50 µg/mL | > 50 µg/mL | – | – | – | > 300 µM |
| CCc1cccc(NC(=S)NNC(=O)c2ccncc2)c1 | > 50 µg/mL | > 50 µg/mL | > 50 µg/mL | > 50 µg/mL | > 50 µg/mL | > 50 µg/mL | > 50 µg/mL | > 50 µg/mL | > 50 µg/mL | > 50 µg/mL | – | – | – | > 300 µM |
| COc1ccccc1N=C(S)NNC(=O)c1ccncc1 | > 50 µg/mL | > 50 µg/mL | > 50 µg/mL | > 50 µg/mL | > 50 µg/mL | > 50 µg/mL | > 50 µg/mL | > 50 µg/mL | > 50 µg/mL | > 50 µg/mL | – | – | – | > 300 µM |
